From patent publication US8067447B2, “Modulators of glucocorticoid receptor, AP-1, and/or NF-κB activity and use thereof” (Bristol-Myers Squibb Company, priority 2006, dated 2011)
Where two headings read alike, the source gives them in different places.

Columns and labels:
[1] = biological target: T1, human full-length glucocorticoid receptor (Homo sapiens, UniProt P04150); experiment: Glucocorticoid Receptor Binding Assay (II), fluorescence polarization competitor kit (Fluormone GS1); settings: cell lysate with recombinant human full-length GR, 1 nM Fluormone GS1, FP
T1 construct: a cell lysate containing recombinantly expressed human full-length glucocorticoid receptor; purchased PanVera Co., Madison, Wis; P2816
T1 sequence (P04150 1-777): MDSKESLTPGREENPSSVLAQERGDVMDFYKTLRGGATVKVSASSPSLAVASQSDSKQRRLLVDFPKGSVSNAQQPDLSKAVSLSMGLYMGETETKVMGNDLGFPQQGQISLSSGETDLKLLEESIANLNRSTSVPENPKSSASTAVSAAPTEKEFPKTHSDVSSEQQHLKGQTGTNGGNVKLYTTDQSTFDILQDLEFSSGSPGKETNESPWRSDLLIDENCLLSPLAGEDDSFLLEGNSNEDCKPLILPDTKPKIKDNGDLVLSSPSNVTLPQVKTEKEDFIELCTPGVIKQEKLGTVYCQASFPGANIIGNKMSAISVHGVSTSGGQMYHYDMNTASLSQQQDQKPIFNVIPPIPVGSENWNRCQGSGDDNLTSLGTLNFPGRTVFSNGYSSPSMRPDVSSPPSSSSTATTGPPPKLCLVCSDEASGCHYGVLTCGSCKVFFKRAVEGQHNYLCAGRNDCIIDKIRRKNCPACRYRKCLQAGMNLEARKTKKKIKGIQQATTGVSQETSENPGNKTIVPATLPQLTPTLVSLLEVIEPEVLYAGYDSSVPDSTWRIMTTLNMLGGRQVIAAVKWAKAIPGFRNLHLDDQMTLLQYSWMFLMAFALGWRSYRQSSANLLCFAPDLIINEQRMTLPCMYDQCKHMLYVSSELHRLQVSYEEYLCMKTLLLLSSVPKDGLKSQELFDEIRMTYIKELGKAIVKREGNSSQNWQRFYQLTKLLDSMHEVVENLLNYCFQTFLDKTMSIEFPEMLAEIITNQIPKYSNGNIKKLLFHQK
Procedure: In order to measure the binding of compounds on the glucocorticoid receptor a commercially available kit was used (Glucocorticoid receptor competitor assay kit, PanVera Co., Madison, Wis., P2816). Briefly, a cell lysate containing recombinantly expressed human full-length glucocorticoid receptor was mixed with a fluorescently labeled glucocorticoid (1 nM Fluormone GS1) in the presence or absence of test compound. After one hour at room temperature, the fluorescence polarization (FP) of the samples were measured.

[2] = system: AP-1 induced transcriptional activity; experiment: Cellular Transrepressional Assay (AP-1 luciferase reporter in A549 cells, PMA-activated); type: cell-based; settings: A549 cells with 7x AP-1 luciferase reporter, 10 ng/ml PMA, read-out: AP-1 (EC50, nM) (Cellular Transrepression Assay)
Procedure, shortened: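 Test molecules spanning 0.1 nM to 40 μM were co-incubated 7 h with 10 ng/ml PMA in A549 cells stably carrying a 7× AP-1-driven luciferase plasmid. Repression, as % reduction of PMA-alone luminescence measured 10 min after reagent addition, was curve-fitted to give EC50s.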

[3] = biological target: T2, human glucocorticoid receptor (Homo sapiens, UniProt P04150); experiment: Glucocorticoid Receptor Binding Assay (I), fluorescence polarization competitor kit (Fluormone GS Red); settings: purified human recombinant full-length GR 2 nM, 1 nM Fluormone GS Red, FP; read-out: GR (Ki, nM) (GR Binding Assay (I))
T2 construct: purified human recombinant full-length glucocorticoid receptor (2 nM); purchased Invitrogen Part #2893
T2 sequence (P04150 1-777): T1 sequence (P04150 1-777)
Procedure: Briefly, purified human recombinant full-length glucocorticoid receptor (2 nM) was mixed with fluorescently labeled glucocorticoid (1 nM Fluormone GS Red) in the presence or absence of test compound. After two hour incubation at room temperature in the dark, the fluorescence polarization (FP) of the samples was measured. […] Test compounds were analyzed in the concentration range from 8.5E-05 μM to 5 μM.

| Structure (SMILES) | Ki [1] [nM] | EC50 ([2]; Homo sapiens, A549, 7 h) [nM] | EC50 ([2]; 7 hours) [nM] | Ki [3] [nM] |
| --- | --- | --- | --- | --- |
| CN(C)C(=O)Nc1cc(F)ccc1-n1ncc2cc([C@H](c3ccccc3)C(C)(C)C(=O)Nc3nncs3)ccc21 [Example 160, (3S)-3-(1-(2-(3,3-Dimethylureido)-4-fluorophenyl)-1H-indazol-5-yl)-2,2-dimethyl-3-phenyl-N-(1,3,4-thiadiazol-2-yl)propanamide] | 25 | 234 | – | – |
| CCOC(=O)c1cccc(-n2ncc3cc([C@H](c4ccccc4)C(C)(C)C(=O)Nc4nncs4)ccc32)c1 (stereo in doubt) [Example 95, ethyl 3-(5-(3-(1,3,4-thiadiazol-2-ylamino)-2,2-dimethyl-3-oxo-1-phenylpropyl)-1H-indazol-1-yl)benzoate] | 496 | > 10000 | – | – |
| CC(C)(C(=O)Nc1nncs1)[C@@H](c1ccccc1)c1ccc2c(cnn2-c2ccc(F)cc2C(=O)O)c1 [Example 157, 2-(5-((S)-3-(1,3,4-Thiadiazol-2-ylamino)-2,2-dimethyl-3-oxo-1-phenylpropyl)-1H-indazol-1-yl)-5-fluorobenzoic acid] | 634 | – | – | – |
| CN(C)C(=O)c1cc(F)ccc1-n1ncc2cc([C@H](c3ccccc3)C(C)(C)C(=O)Nc3nncs3)ccc21 [Example 158, 2-(5-((S)-3-(1,3,4-Thiadiazol-2-ylamino)-2,2-dimethyl-3-oxo-1-phenylpropyl)-1H-indazol-1-yl)-5-fluoro-N,N-dimethylbenzamide] | 825 | 2500 | – | – |
| CC(C)(C(=O)Nc1nccs1)C(Cc1ccccc1)c1ccc2c(cnn2-c2ccc(F)cc2)c1 (stereo not drawn) [Example 138, 3-(1-(4-Fluorophenyl)-1H-indazol-5-yl)-2,2-dimethyl-4-phenyl-N-(thiazol-2-yl)butanamide] | 1.9 | 223 | – | – |
| COC(=O)c1ccc(C(c2ccc3c(cnn3-c3ccc(F)cc3)c2)C(C)C(=O)Nc2nncs2)cc1 (stereo not drawn) [Example 153, Methyl 4-(3-(1,3,4-thiadiazol-2-ylamino)-1-(1-(4-fluorophenyl)-1H-indazol-5-yl)-2-methyl-3-oxopropyl)benzoate] | 4.3 | 27 | – | – |
| Cc1ccccc1C(c1ccc2c(cnn2-c2ccc(F)cc2)c1)C(C)(C)C(=O)Nc1nccs1 (stereo not drawn) [Example 40, 3-(1-(4-fluorophenyl)-1H-indazol-5-yl)-2,2-dimethyl-N-(thiazol-2-yl)-3-o-tolylpropanamide] | 1.6 | 2.1 | – | – |
| CC(C)c1cc2c(cnn2-c2ccc(F)cc2)cc1CC(C)(C)C(=O)Nc1nncs1 [Example 104] | 1.6 | > 10000 | – | – |
| CC(C)(C(=O)NC1CCOCC1)C(Cc1ccccc1)c1ccc2c(cnn2-c2ccc(F)cc2)c1 (stereo not drawn) [Example 132, 3-(1-(4-fluorophenyl)-1H-indazol-5-yl)-2,2-dimethyl-4-phenyl-N-(tetrahydro-2H-pyran-4-yl)butanamide] | 7.8 | > 10000 | – | – |
| CCC(CC)(C(=O)Nc1nncs1)C(c1ccccc1)c1ccc2c(cnn2-c2ccc(F)cc2)c1 (stereo not drawn) [Example 149, 2-ethyl-2-((1-(4-fluorophenyl)-1H-indazol-5-yl)(phenyl)methyl)-N-(1,3,4-thiadiazol-2-yl)butanamide] | 4.7 | 130 | – | – |
| O=C(Nc1nncs1)C(C1CCCC1)C(c1ccccc1)c1ccc2c(cnn2-c2ccc(F)cc2)c1 (stereo not drawn) [Example 147, 2-cyclopentyl-3-(1-(4-fluorophenyl)-1H-indazol-5-yl)-3-phenyl-N-(1,3,4-thiadiazol-2-yl)propanamide] | 2.3 | 2 | – | – |
| Cc1cc2c(cnn2-c2ccc(F)cc2)cc1CC(C)C(=O)Nc1nncs1 (stereo not drawn) [Example 106, 3-(1-(4-Fluorophenyl)-6-methyl-1H-indazol-5-yl)-2-methyl-N-(1,3,4-thiadiazol-2-yl)propanamide] | 1 | 160 | – | – |
| CC(C)(C(=O)Nc1nncs1)C(c1ccc(F)cc1)c1ccc2c(cnn2-c2ccc(F)cc2)c1 (stereo not drawn) [Example 53, 3-(4-fluorophenyl)-3-(1-(4-fluorophenyl)-1H-indazol-5-yl)-2,2-dimethyl-N-(1,3,4-thiadiazol-2-yl)propanamide] | 1.9 | 13 | – | – |
| O=C(Nc1nncs1)C(C1CCCCC1)C(c1ccccc1)c1ccc2c(cnn2-c2ccc(F)cc2)c1 (stereo not drawn) [Example 148, 2-cyclohexyl-3-(1-(4-fluorophenyl)-1H-indazol-5-yl)-3-phenyl-N-(1,3,4-thiadiazol-2-yl)propanamide] | 6.4 | 6 | – | – |
| O=C(Nc1nncs1)C(c1ccccc1)C(c1ccccc1)c1ccc2[nH]ncc2c1 (single isomer, unassigned) [152-diast B, 3-(1H-Indazol-5-yl)-2,3-diphenyl-N-(1,3,4-thiadiazol-2-yl)propanamide] | 1150 | – | 5000 | – |
| O=C(Nc1nncs1)C(c1ccccc1)C(c1ccccc1)c1ccc2[nH]ncc2c1 (single isomer, unassigned) [152-diast A, 3-(1H-Indazol-5-yl)-2,3-diphenyl-N-(1,3,4-thiadiazol-2-yl)propanamide] | 9.8 | 2500 | – | – |
| Cc1cc2c(cnn2-c2ccc(F)cc2)cc1CC(C)(C)C(=O)Nc1nncs1 [Example 105] | 5.6 | 1.9 | – | – |
| CC(C)(C(=O)NC1CCCC1O)C(Cc1ccccc1)c1ccc2c(cnn2-c2ccc(F)cc2)c1 (single isomer, unassigned) [Example 124-isomerD] | 0.64 | – | 40 | – |
| CC(C)(C(=O)NC1CCCC1O)C(Cc1ccccc1)c1ccc2c(cnn2-c2ccc(F)cc2)c1 (single isomer, unassigned) [Example 124-isomerB] | 2.3 | – | > 10000 | – |
| C=CCC(c1ccc2c(cnn2-c2ccc(F)cc2)c1)C(C)(C)C(=O)Nc1nncs1 (stereo not drawn) [Example 45, 3-(1-(4-fluorophenyl)-1H-indazol-5-yl)-2,2-dimethyl-N-(1,3,4-thiadazol-2-yl)hex-5-enamide] | 2.6 | 52 | – | – |
| CC(C)(C(=O)Nc1nncs1)C(c1cccc(F)c1)c1ccc2c(cnn2-c2ccc(F)cc2)c1 (stereo not drawn) [Example 52, 3-(3-fluorophenyl)-3-(1-(4-fluorophenyl)-1H-indazol-5-yl)-2,2-dimethyl-N-(1,3,4-thiadiazol-2-yl)propanamide] | 1.3 | 8.1 | – | – |
| O=C(Nc1nncs1)C(c1ccccc1)C(c1ccccc1)c1ccc2c(cnn2-c2ccc(F)cc2)c1 (single isomer, unassigned) [Example 145-isomerB, 3-(1-(4-fluorophenyl)-1H-indazol-5-yl)-2,3-diphenyl-N-(1,3,4-thiadiazol-2-yl)propanamide] | 1.1 | – | 5 | – |
| CC(C)CC1(c2ccc3c(cnn3-c3ccc(F)cc3)c2)CC1C(=O)Nc1nccs1 (mixture of isomers) [Example 100, Cis and trans-2-(1-(4-fluorophenyl)-1H-indazol-5-yl)-2-isobutyl-N-(thiazol-2-yl)cyclopropanecarboxamide] | 102 | 290 | – | – |
| CC(C)(C(=O)Nc1nncs1)C(c1ccccc1)c1ccc2c(cnn2CS(C)(=O)=O)c1 (stereo not drawn) [Example 64, 2,2-dimethyl-3-(1-(methylsulfonylmethyl)-1H-indazol-5-yl)-3-phenyl-N-(1,3,4-thiadiazol-2-yl)propanamide] | – | > 10000 | – | 65 |
| CC(C)(C(=O)Nc1nncs1)C(c1ccccc1)c1ccc2c(cnn2Cc2ccccc2)c1 (stereo not drawn) [Example 72, 3-(1-benzyl-1H-indazol-5-yl)-2,2-dimethyl-3-phenyl-N-(1,3,4-thiadiazol-2-yl)propanamide] | – | 1930 | – | 14 |
| CC(C)(C(=O)Nc1nncs1)C(c1ccccc1)c1ccc2c(cnn2CCCCO)c1 (stereo not drawn) [Example 76, 3-(1-(4-hydroxybutyl)-1H-indazol-5-yl)-2,2-dimethyl-3-phenyl-N-(1,3,4-thiadiazol-2-yl)propanamide] | – | 267 | – | 9.3 |
